Laboratory results: paper PMC6478823, “A suite of phenotypic assays to ensure pipeline diversity when prioritizing drug-like Cryptosporidium growth inhibitors” (Nature Communications, 2019)

Key:
cryptosporidiosis [1] = tested on: cryptosporidiosis; design: method as in PMID 19954529; settings: versus approximately one-quarter of untreated children; cited from earlier work
cryptosporidiosis [2] = tested on: cryptosporidiosis; design: method as in PMID 17253532; settings: cited from earlier work
C. parvum [3] = test: 48 h Cryptosporidium growth inhibition assay; assay type: cell-based, Cryptosporidium parvum; settings: Cryptosporidium parvum, HCT-8, read-out: Regular 3 to 48 h assay in vitro EC90, C. parvum in HCT-8 cells; compound added 3 h post-infection, read at 48 h
Excerpt: As a first step in developing specific Cryptosporidium mode of action assays, we conducted a series of light microscopy time-lapse and transmission electron microscopy (TEM) time course experiments in order to precisely define C. parvum development within the HCT-8 cell culture system. […] This synchronicity was exploited by modifying a previously developed high-content microscopy assay. These assay modifications enabled the evaluation of several key events within the life cycle: host cell invasion, intracellular replication, host cell egress and establishment of new parasitophorous vacuoles, and sexual differentiation. […] Since the methods all used automated liquid handling, imaging, and image analysis, the assay methods all incorporated nuclear staining to monitor host cell numbers and enable recognition of HCT-8 cell monolayer damage, for example as an artifact from a malfunctioning plate washer or from unanticipated cytotoxicity of the compounds.
Human ileocecal adenocarcinoma (HCT-8) cells were purchased from ATCC (catalog# CCL-244) and cultured in ATCC modified RPMI-1640 medium (Gibco, catalog# A10491–01), supplemented with 10% heat-inactivated fetal bovine serum (Sigma-Aldrich, catalog# 12306C) and 120 U/mL penicillin and 120 μg/mL streptomycin (Gibco, catalog# 15140-122) (culture media). […] For all experiments, HCT-8 cells between passages 9 and 39 were used. C. parvum (Iowa isolate) oocysts were purchased from Bunchgrass Farm (Deary, ID), stored at 4 °C and used within 5 months of collection from an infected calf. To induce excystation, oocysts were first treated with 10 mM hydrochloric acid for 10 min at 37 °C, spun at 14,000×g for 4.5 min at room temperature, treated with 2 mM sodium taurocholate for 10 min at 16 °C, spun as before, and resuspended in culture media for infection.
A modification of a previously reported immunofluorescence assay was used to determine the EC50 and EC90 of compounds[13]. HCT-8 cells were grown to ≥ 90% confluence in 384-well plates (Corning, catalog# 353962) and infected with 5500 oocysts per well after they were induced for excystation as described above. Different concentrations of compounds were added 3 h post-infection and plates were incubated for another 45 h in a 5% CO2 incubator at 37 °C. Wells were then washed 3 times with PBS containing 111 mM D-galactose (PBS-D-gal), fixed with 4% paraformaldehyde (PFA) in PBS for 15 min at room temperature, permeabilized with 0.25% Triton X-100 for 10 min at 37 °C, washed 3 times with PBS with 0.1% Tween 20, and blocked with 4% bovine serum albumin (BSA) in PBS for 2 h at 37 °C or 4 °C overnight. Parasitophorous vacuoles were stained with 1.33 µg/mL of fluorescein-labeled Vicia villosa lectin (Vector Laboratories, catalog# FL-1231) diluted in 1% BSA in PBS with 0.1% Tween 20 for 1 h at 37 °C, followed by addition of Hoechst 33258 (AnaSpec, catalog# AS-83219) at 0.09 mM diluted in water for another 15 min at 37 °C. Wells were then washed 5 times with PBS containing 0.1% Tween 20. A Nikon Eclipse Ti2000 epifluorescence microscope with an automated stage was programmed using NIS-Elements Advanced Research software (Nikon, USA) to focus on the center of each well and take a 3 × 3 or 6 × 6 composite image using an EXi blue fluorescence microscopy camera (QImaging, Canada) with a 20 × objective (NA = 0.45). Nuclei and parasite images were separately exported as.tif files and analyzed using macros developed on the ImageJ platform (National Institutes of Health)[13].

C. parvum [4] = test: Egress, motility, reinvasion assay (PV ratio); settings: compound at EC90
Procedure: For quantification of parasitophorous vacuoles over time, HCT-8 cells were grown to greater than 90% confluence in 384-well plates and infected with 11,000 oocysts after triggering excystation.

For `CC(=O)Oc1ccccc1C(=O)Nc1ncc([N+](=O)[O-])s1` [Nitazoxanide], the “improvement after 1 week of treatment in young children” value (cryptosporidiosis [1]) is listed as “just over half of children studied”, the “efficacy in AIDS patients” value (cryptosporidiosis [2]) is listed as “equivalent to a placebo” and the EC90 (C. parvum [3]) is listed as 3.52 µM. The “Egress and Reinvasion Assay: Mean PV ratios (19.5h:6h), Average” value (C. parvum [4]; average of replicates) was 1.40, the “Egress and Reinvasion Assay: Mean PV ratios (19.5h:6h), Replicate 1a” value (C. parvum [4]; single replicate 1) was 1.33 and the “Egress and Reinvasion Assay: Mean PV ratios (19.5h:6h), Replicate 2a” value (C. parvum [4]; single replicate 2) was 1.77. For the same compound, the “Egress and Reinvasion Assay: Mean PV ratios (19.5h:6h), Replicate 3a” value (C. parvum [4]; single replicate 3) was 1.37 and the “Egress and Reinvasion Assay: Mean PV ratios (19.5h:6h), Replicate 4a” value (C. parvum [4]; single replicate 4) was 1.12.
